# Several values for one entry are separate records, joined by “and”; a condition that tells them apart may be missing. Identical values can stand only once. Like-named read-outs stand apart in the source and are kept apart here.
# Tests used:
# [1] = system: cerebellar granule neurons; details: for % neuronal survival Mean ± SD: 24 hours, percent of HK control
# Procedure: These compounds were analyzed for their neuroprotective activity in vitro. Granule neuron cultures were obtained from dissociated cerebella of 7-8 day old Wistar rats as known to one of ordinary skill in the art. Cells were plated in Basal Eagle's Medium with Earles salts (BME) supplemented with 10% fetal calf serum (FCS), 25 mM KCl, 2 mM glutamine (Invitrogen), and 100 μg/ml gentamycin on dishes (Nunc) coated with poly-L-lysine in 24-well dishes at a density 1×10^6 cells/well. Cytosine arabinofuranoside (10 μM) was added to the culture medium 18-22 hours after plating to prevent replication of non-neuronal cells that yields highly pure culture of granule neurons. The neuronal cultures were maintained for 7-8 days prior to treatments.
# This experimental model of neuronal apoptosis has been used widely used to understand the molecular mechanisms underlying neurodegeneration and to identify biological and chemical agents with neuroprotective efficacy. For this, the cells were rinsed once and then maintained in low K^+ medium (serum-free BME medium, 5 mM KCl; referred to as LK), or in the case of control cultures, in high K^+ medium (serum-free BME medium, supplemented with 20 mM KCl; referred to as HK). Each compound was tested at three different concentrations of 1 μM, 5 μM, and 25 μM. The 25 μM concentration was included to evaluate neurotoxicity. For treatments, the chemical compounds (dissolved in dimethylsulfoxide) were added directly to LK medium at the time of the switch from HK at concentrations of 1 μM, 5 μM, or 25 μM. Viability was assessed 24 hours later. Each compound was tested in duplicate (at each of the concentrations) and the experiment repeated at least 3 times. Although all compounds were solubilized in dimethylsulfoxide (DMSO), the amount of DMSO in the cultures never exceeded 0.1% (v/v).
# The viability status of neuronal cultures treated with HK, LK, or LK medium supplemented with various compounds was evaluated by phase contrast microscopy and quantified by staining cell nuclei with 4′,6′-diamidino2-phenylindole hydrochloride (DAPI). Briefly, the cells were fixed in 4% paraformaldehyde for 20 minutes at 4′C. After washing in phosphate buffered saline, DAPI (1 μg/ml in phosphate buffered saline) was added for 15 min at room-temperature and viewed under ultraviolet light (260 nm). Cells with condensed or fragmented nuclei were scored as dead. […] Statistical analysis was performed using an unpaired, two-tailed Student's t test, compared to mean neuronal survival of control cultures receiving LK treatment and the quantitative data are presented in Tables 1 and 2 for each compound.
# [2] = Z/E isomer stability in DMSO-d6 by NMR; assay type: physicochemical; details: 6 hours from mixing
# [3] = system: cerebellar granule neurons; assay: TUNEL and active caspase-3 immunoreactivity in neuronal cultures (FIG. 1); assay type: cell-based, Wistar rats; details: Compound 31 at 1 μm, compared with Compounds 7, 37 and 39, 24 hours
# Description: FIG. 1 is a photograph illustrating the qualitative neuroprotective effects of Compound 7 (5 μm), Compound 31 (1 μm), Compound 37 (25 μm) and Compound 39 (25 lam) are illustrated presented in the figure. From left to right columns show phase-contrast micrographs of neuronal morphology, DAPI staining of nuclei showing fragmented nuclei, TUNEL staining also showing fragmented DNA, and active caspase-3 immunoreactivity highly indicative of apoptosis. DAPI and TUNEL panels are taken from the same fields.
# The TUNEL assay of neuronal cultures was performed 24 hours after treatment of the cultures using DEADEND™ Fluorometric TUNEL System from Promega (Madison, Wis.) according to the manufacturer's instructions. For immunocytochemical analysis of active caspase 3, neuronal cultures cells were fixed and treated with 0.2% Triton for 5 minutes. After blocking with PBS containing 5% BSA and 5% goat serum in PBS for 30 minutes, the coverslips were incubated with the active capase-3 primary antibody overnight at 4° C. After three washes with phosphate-buffered saline (PBS), the cells were incubated with secondary antibodies for 45 minutes at 25° C. after which the cells were washed with PBS. To visualize nuclei, cells were stained with DAPI for 15 minutes at 25° C.
# [4] = LK medium, concentration not specified
Molecule,"% neuronal survival Mean ± SD ([1]; Table 1, 1 μM in LK medium) [%]","% neuronal survival Mean ± SD ([1]; Table 1, 5 μM in LK medium)","% neuronal survival Mean ± SD ([1]; Table 1, 25 μM in LK medium) [%]","neuroprotective activity (in words) [1, 4]",other results
"O=C1Nc2ccc(Cl)cc2/C1=C\c1cc(Br)c(O)c(Br)c1 [Compound 7, (E)-3-(3′,5′-Dibromo-4-hydroxybenzylidene)-5-chlorondolin-2-one]",84.3 ± 1.04,91.9% and 91.9 ± 5.31 %,81.8 ± 14.94,,neurotoxicity (in words) [1]: not toxic; neuroprotective activity (in words) ([1]; at 5 μM): highly effective; percent of Z configuration after 6 hours [2]: 70%
"O=C1Nc2ccc([N+](=O)[O-])cc2/C1=C/c1cc(Br)cc(Br)c1 [Compound 22, (Z)-3-(3′,5′-Dibromobenzylidene)-5-nitroindolin-2-one]",78.1 ± 5.82,78.7 ± 15.86%,74.5 ± 9.12,,
"O=C1Nc2ccc([N+](=O)[O-])cc2/C1=C/c1cc(Br)c(O)c(Br)c1 [Compound 21, (Z)-3-(3′,5′-Dibromo-4-hydroxybenzylidene)-5-nitroindolin-2-one]",79.9 ± 12.81,78.4 ± 31.66%,71.3 ± 19.80,superior to Compound 1,percent of Z configuration after 6 hours [2]: 70%
"O=C1Nc2ccc(Cl)cc2/C1=C\c1ccccc1 [Compound 12, (E)-3-Benzylidene-5-chloroindolin-2-one]",58.6 ± 3.27,63.8 ± 8.63%,41.1 ± 21.41,not effective,
"O=C1Nc2ccccc2/C1=C\c1cc(Br)cc(Br)c1 [Compound 2, (E)-3-(3′,5′-Dibromobenzylidene)indolin-2-one]",54.7 ± 5.32,45.4 ± 4.32%,46.9 ± 12.30,,neuroprotective activity (in words) ([1]; at all three concentrations): not protective
"O=C1Nc2ccc([N+](=O)[O-])cc2/C1=C/c1ccccc1 [Compound 25, (Z)-3-Benzylidene-5-nitroindolin-2-one]",80.1 ± 18.01,78.4 ± 17.54%,54.3 ± 3.63,,neuroprotective activity (in words) ([1]; at all three concentrations): moderately efficacious
"O=C1Nc2ccc(Cl)cc2/C1=C\c1c(Cl)cccc1Cl [Compound 11, (E)-5-Chloro-3-(2′,6′-dichlorobenzylidene)indolin-2-one]",56.4 ± 14.41,63.8 ± 3.46%,45.7 ± 24.05,,
"O=C1Nc2ccc(F)cc2/C1=C\c1cc(Br)cc(Br)c1 [Compound 31, (E)-3-(3′,5′-Dibromobenzylidene)-5-fluoroindolin-2-one]",38.4 ± 6.24,46.1 ± 4.00%,48.1 ± 14.65,lack of neuroprotective activity,TUNEL and active caspase-3 immunoreactivity (in words) [3]: greater TUNEL and active caspase-3 immunoreactivity
"O=C1Nc2ccccc2/C1=C\c1cc(Br)c(O)c(Br)c1 [Compound 1, (E)-3-(3′,5′-Dibromo-4′-hydroxybenzylidene)indolin-2-one]",69.7 ± 2.19,88.4 ± 11.74 %,84.6 ± 7.57,moderately effective,neurotoxicity (in words) [1]: not toxic; percent of Z configuration after 6 hours [2]: 50%
"COc1cc(/C=C2\C(=O)Nc3ccc(F)cc32)cc(OC)c1OC [Compound 32, (Z)-5-Fluoro-3-(3′, 4′,5′-trimethoxybenzylidene)indolin-2-one]",59.2 ± 1.77,51.9 ± 7.14%,31.9 ± 1.77,not effective,
"O=C1Nc2ccc(F)cc2/C1=C/c1cccs1 [Compound 44, (Z)-5-Fluoro-3-(thien-2′-ylmethylene)indolin-2-one]",,,,low protection,"% neuronal survival Mean ± SD ([1]; Table 2, 1 μM in LK medium): 53.6 ± 14.24%; % neuronal survival Mean ± SD ([1]; Table 2, 5 μM in LK medium): 60.1 ± 10.28%; % neuronal survival Mean ± SD ([1]; Table 2, 25 μM in LK medium): 68.7 ± 9.35%"
"CN(C)c1ccc(/C=C2\C(=O)Nc3ccc([N+](=O)[O-])cc32)cc1 [Compound 29, (Z)-3-(4′-(Dimethylamino)benzylidene)-5-nitroindolin-2-one]",70.4 ± 9.37,67.6 ± 10.31%,66.9 ± 9.86,,
O=C1Nc2ccccc2/C1=C/c1ccc[nH]1 [Compound 35],,,,,"% neuronal survival Mean ± SD ([1]; Table 2, 1 μM in LK medium): 56.0 ± 17.21%; % neuronal survival Mean ± SD ([1]; Table 2, 5 μM in LK medium): 51.1 ± 7.06%; % neuronal survival Mean ± SD ([1]; Table 2, 25 μM in LK medium): 3.88 ± 9.58 %"
"O=C1Nc2ccc([N+](=O)[O-])cc2/C1=C\c1c(Cl)cccc1Cl [Compound 24, (E)-3-(2′,6′-Dichlorobenzylidene)-5-nitroindolin-2-one]",76.4 ± 9.84,69.9 ± 11.25%,70.7 ± 8.50,,
"Cc1ccc(/C=C2\C(=O)Nc3ccc([N+](=O)[O-])cc32)cc1 [Compound 28, (Z)-3-(4′-Methylbenzylidene)-5-nitroindolin-2-one]",54.6 ± 7.48,60.0 ± 1.87%,54.3 ± 0.49,,
O=C1Nc2ccc(F)cc2/C1=C/c1ccc[nH]1 [Compound 40],,,,highest neuroprotective activity,"% neuronal survival Mean ± SD ([1]; Table 2, 1 μM in LK medium): 58.4 ± 3.98%; % neuronal survival Mean ± SD ([1]; Table 2, 5 μM in LK medium): 65.7 ± 0.07%; % neuronal survival Mean ± SD ([1]; Table 2, 25 μM in LK medium): 96.6 ± 1.91 %; neuroprotective activity (in words) ([1]; at 25 μM / high doses): the most effective one"
"CC(=O)Oc1c(Br)cc(/C=C2/C(=O)Nc3ccc(Cl)cc32)cc1Br [Compound 9, (E)-2,6-Dibromo-4-(5′-chloro-2′-oxoindolin-3-ylidene)methyl)phenyl acetate]",73.0 ± 5.59,84.6 ± 16.19 %,75.2 ± 31.54,reduced activity,
(Z)-5-Bromo-3-(thien-2′-ylmethylene)indolin-2-one [Compound 43],,,,,"% neuronal survival Mean ± SD ([1]; Table 2, 1 μM in LK medium): 56.8 ± 5.62%; % neuronal survival Mean ± SD ([1]; Table 2, 5 μM in LK medium): 58.3 ± 9.82%; % neuronal survival Mean ± SD ([1]; Table 2, 25 μM in LK medium): 66.4 ± 4.56%"
O=C1Nc2ccccc2/C1=C/c1ccccc1[N+](=O)[O-] [Compound 6],75.8 ± 3.20,76.6 ± 7.14%,81.5 ± 13.72,,
"COc1cc(/C=C2\C(=O)Nc3ccc(Br)cc32)cc(OC)c1OC [Compound 18, (Z)-5-Bromo-3-(3′, 4′,5′-trimethoxybenzylidene)indolin-2-one]",50.8 ± 7.67,59.9 ± 12.94%,61.3 ± 1.20,not effective,
"Cc1ccc(/C=C2/C(=O)Nc3ccc(Cl)cc32)cc1 [Compound 13, (E)-5-Chloro-3-(4′-methybenzylidene)indolin-2-one]",70.0 ± 17.50,70.6 ± 13.86%,67.4 ± 17.40,,
